Test results published in PMC11877508, “Anti-inflammatory and Hepatoprotective Iridoid Glycosides from the Roots of Gomphandra mollis” (Journal of Natural Products, 2025).
Like-named read-outs stand apart in the source and are kept apart here.

How the values were obtained:
[1] = RAW264.7 cell viability (MTT) alongside the NO assay; conditions: RAW264.7 cells
Description: (§1) RAW264.7 cells were cultured in Dulbecco’s modified essential medium (DMEM, Gibco). The cells were incubated at 37 °C in DMEM with 10% fetal bovine serum (FBS, Gibco), penicillin (100 U/mL, Gibco), and streptomycin sulfate (100 μg/mL, Gibco) under a humidified atmosphere containing 5% CO2. Briefly, 2 × 10^4 cells/well treated for 24 h with vehicle or compounds were examined for cell viability based on the MTT (3-(4,5-dimethylthiazol-2-yl)-2,5-diphenyltetrazolium bromide assay) method.[60] Survival of macrophage cells after treatment with compounds was measured at a wavelength of 570 nm.
(§2) RAW264.7 cells (2 × 10^4 cells/well) were stimulated with or without 1 μg/mL lipopolysaccharide (LPS, Sigma) for 24 h in the presence or absence of the test compounds at different concentrations. Afterward, 100 μL of the cell culture supernatant was mixed with 100 μL of Griess reagent.[61] The remaining cells from the Griess assay were then utilized to determine their viability by using the MTT colorimetric assay described above.

[2] = system: NO production in LPS-stimulated RAW264.7 cells; test: Inhibition of nitric oxide (NO) production in LPS-stimulated RAW264.7 cells (Griess reagent); type: cell-based; conditions: 1 μg/mL LPS, read-out: IC50 value, NO production inhibitory effect
Description: as §1, §2

[3] = HepG2 cytotoxicity test (MTT, 48 h); conditions: human, HepG2 cells
Description: (§3) Human hepatocellular carcinoma HepG2 cells were cultured in DMEM (Gibco) supplemented with 10% FBS (Gibco) and 1% antibiotic–antimycotic (Gibco, 15240062). Once cells reached approximately 80% confluence, they were washed with PBS and detached using trypsin-EDTA (Gibco, 25200072) at 37 °C for 5 min. Cells were then seeded into 96-well plates at a density of 3 × 10^4 cells per well (100 μL/well) and incubated for 24 h at 37 °C in a humidified atmosphere with 5% CO2.
(§4) After the initial incubation, the medium was replaced with 100 μL of fresh medium containing the test compounds, and the cells were incubated for an additional 48 h. Cell viability was determined using the MTT assay, following standard protocols with untreated cells serving as the control. The percentage of cell viability was calculated using the following formula: % viability = [(number of viable cells)/(total cells)] × 100. The concentration of the test compounds was set at 80 μM for the screening.

in vitro [4] = conditions: human
Description: as §3, §4

in vitro [5] = test: in vitro
Description: as §1, §2

[6] = Hepatoprotective effect in acetaminophen-induced hepatotoxicity in HepG2 cell model (MTT); type: cell-based; conditions: human, HepG2 cells, HepG2, 6 mM APAP, control without APAP 100%, read-out: Cell viability, treated only with acetaminophen (APAP)
Description: Compounds that maintained cell viability above 80% were subsequently tested for their hepatoprotective properties using an acetaminophen-induced hepatotoxicity model in HepG2 cells. […] Afterward, the cells were treated with the test compounds. Eight hours later, hepatotoxicity was induced by adding acetaminophen (6 mM, Sigma-Aldrich A7085) to the wells. Cell viability was measured using the MTT assay 36 h after acetaminophen exposure, and the results were used to assess the hepatoprotective effects of the compounds.

SMILES	viability at 48 h, 80 µM [1]	IC50 ([2]; Mus musculus, RAW264.7, 24 h)	viability at 48 h, 80 µM [3]	further results
COC(=O)C1=CO[C@@H](O[C@@H]2O[C@H](CO[C@H]3O[C@H](CO)[C@H](O)[C@H](O)[C@H]3O)[C@@H](O)[C@H](O)[C@H]2O)[C@@H]2[C@@H](C)[C@@H](O)C[C@H]12 [Compound 1, loganin 6′-O-α-D-galactopyranoside]	97.7 ± 2.3%	9.19 µM	–	IC50 ([2]; 24 h): 9.18 ± 0.3 µM
C=C[C@H]1[C@H](O[C@@H]2O[C@H](CO)C(O)[C@H](O)[C@H]2O)OC=C(C(=O)O[C@H]2C[C@@H]3CCOC(=O)[C@@H]3[C@H]2C)[C@H]1CC(OC)OC (stereo partly shown) [Compound 3, gomphandranoside C]	103 ± 3.5%	23.8 ± 2.6 µM	> 80%	–
C=C[C@H]1[C@H](O[C@@H]2O[C@H](CO)[C@@H](O)[C@H](O)[C@H]2O)OC=C(C(=O)O[C@H]2C[C@@H]3C(C(=O)OC)=CO[C@@H](O[C@@H]4O[C@H](CO)[C@@H](O)[C@H](O)[C@H]4O)[C@@H]3[C@H]2C)[C@H]1C[C@H]1OC[C@H]2O[C@H](OC[C@H]3O[C@@](CO)(O[C@H]4O[C@H](CO)[C@@H](O)[C@H](O)[C@H]4O)[C@@H](O)[C@@H]3O)[C@H](O)[C@@H](O)[C@H]2O1 [Compound 4, gomphandranoside D]	95.1 ± 2.8%	19.5 ± 0.3 µM	> 80%	–
C=C[C@H]1[C@H](O[C@@H]2O[C@H](CO)[C@@H](O)[C@H](O)[C@H]2O)OC=C(C(=O)O[C@H]2C[C@@H]3C(C(=O)OC)=CO[C@@H](O[C@@H]4O[C@H](CO)[C@@H](O)[C@H](O)[C@H]4O)[C@@H]3[C@H]2C)[C@H]1C[C@H]1OC[C@H]2O[C@H](OC[C@H]3O[C@](O)(CO)[C@@H](O)[C@@H]3O)[C@H](O)[C@@H](O)[C@H]2O1 [Compound 5, gomphandranoside E]	98.9 ± 3.1%	17.7 ± 0.4 µM	> 80%	–
C=C[C@H]1[C@H](O[C@@H]2O[C@H](CO)[C@@H](O)[C@H](O)[C@H]2O)OC=C(C(=O)O[C@H]2C[C@@H]3C(C(=O)OC)=CO[C@@H](O[C@@H]4O[C@H](CO)[C@@H](O)[C@H](O)[C@H]4O)[C@@H]3[C@H]2C)[C@H]1C[C@@H]1O[C@@H]2[C@@H](O)[C@@H](OC[C@H]3O[C@@](CO)(O[C@H]4O[C@H](CO)[C@@H](O)[C@H](O)[C@H]4O)[C@@H](O)[C@@H]3O)O[C@H](CO)[C@@H]2O1 [Compound 6, gomphandranoside F]	94.6 ± 4.5%	20.2 ± 1.1 µM	> 80%	–
C=C[C@H]1[C@H](O[C@@H]2O[C@H](CO)[C@@H](O)[C@H](O)[C@H]2O)OC=C(C(=O)O[C@H]2C[C@@H]3CCOC(=O)[C@@H]3[C@H]2C)[C@H]1C[C@@H](O)O[C@@H](O)C[C@@H]1C(C(=O)O[C@H]2C[C@@H]3CCOC(=O)[C@@H]3[C@H]2C)=CO[C@@H](O[C@@H]2O[C@H](CO)[C@@H](O)[C@H](O)[C@H]2O)[C@@H]1C=C [Compound 7, gomphandranoside G]	95.3 ± 2.4%	14.7 ± 0.9 µM	> 80%	–
C=C[C@@H]1[C@H](O[C@@H]2O[C@H](CO)[C@@H](O)[C@H](O)[C@H]2O)OC=C(C(=O)O[C@H]2C[C@@H]3C(C(=O)OC)=CO[C@H](O[C@@H]4O[C@H](CO)[C@@H](O)[C@H](O)[C@H]4O)[C@@H]3[C@H]2C)[C@@H]1/C(C=O)=C\C[C@H]1C(C(=O)O[C@H]2C[C@@H]3CCOC(=O)[C@@H]3[C@H]2C)=CO[C@@H](O[C@@H]2O[C@H](CO)[C@@H](O)[C@H](O)[C@H]2O)[C@H]1C=C [Compound 8, gomphandranoside H]	100 ± 2.5%	14.4 ± 1.2 µM	–	–
C=C[C@H]1[C@H](O[C@@H]2O[C@H](CO)[C@@H](O)[C@H](O)[C@H]2O)OC=C(C(=O)O[C@H]2C[C@@H]3C(C(=O)OC)=CO[C@@H](O[C@@H]4O[C@H](CO)[C@@H](O)[C@H](O)[C@H]4O)[C@@H]3[C@H]2C)[C@H]1C1=CO[C@H]2C[C@@H]1C[C@@H]1C(C(=O)O[C@H]3C[C@@H]4C(C(=O)OC)=CO[C@@H](O[C@@H]5O[C@H](CO)[C@@H](O)[C@H](O)[C@H]5O)[C@@H]4[C@H]3C)=CO[C@@H](O[C@@H]3O[C@H](CO)[C@@H](O)[C@H](O)[C@H]3O)[C@H]21 [Compound 9, gomphandranoside I]	98.3 ± 2.6%	12.9 ± 0.5 µM	> 80%	–
C=C[C@H]1[C@H](O[C@@H]2O[C@H](CO)[C@@H](O)[C@H](O)[C@H]2O)OC=C(C(=O)O[C@H]2C[C@@H]3C(C(=O)OC)=CO[C@@H](O[C@H]4O[C@H](CO)[C@@H](O)[C@H](O)[C@H]4O)[C@@H]3[C@H]2C)[C@H]1C1=COC[C@@H]2[C@H]3[C@@H](O[C@@H]4O[C@H](CO)[C@@H](O)[C@H](O)[C@H]4O)OC=C(C(=O)O[C@H]4C[C@@H]5C(C(=O)OC)=CO[C@@H](OC6O[C@H](CO)[C@@H](O)[C@H](O)[C@H]6O)[C@@H]5[C@H]4C)[C@H]3C[C@H]12 (stereo partly shown) [Compound 10, gomphandranoside K]	96.7 ± 1.5%	12.2 ± 1.1 µM	–	–
C=CC1C(CC(OC)OC)C(C(=O)O[C@H]2CC3C(C(=O)OC)=CO[C@@H](O[C@@H]4O[C@H](CO)[C@@H](O)[C@H](O)[C@H]4O)C3[C@H]2C)=CO[C@H]1O[C@@H]1O[C@H](CO)[C@@H](O)[C@H](O)[C@H]1O (stereo partly shown) [Compound 11, cantleyoside-dimethyl-acetal]	94.8 ± 3.7%	26.2 ± 1.3 µM	> 80%	–
C=CC1C(CC=O)C(C(=O)O[C@H]2CC3C(C(=O)OC)=CO[C@@H](O[C@@H]4O[C@H](CO)[C@@H](O)[C@H](O)[C@H]4O)C3[C@H]2C)=CO[C@H]1O[C@@H]1O[C@H](CO)[C@@H](O)[C@H](O)[C@H]1O (stereo partly shown) [Compound 12, cantleyoside]	–	23.1 ± 1.7 µM	–	–
C=C[C@H]1[C@H](O[C@@H]2O[C@H](CO)[C@@H](O)[C@H](O)[C@H]2O)OC=C(C(=O)O[C@H]2C[C@@H]3C(C(=O)OC)=CO[C@@H](O[C@@H]4O[C@H](CO)[C@@H](O)[C@H](O)[C@H]4O)[C@@H]3[C@H]2C)[C@H]1CC=O [Compound 12, cantleyoside]	93.9 ± 2.5%	–	> 80%	–
C=C[C@H]1[C@H](O[C@@H]2O[C@H](CO)[C@@H](O)[C@H](O)[C@H]2O)OC=C2C(=O)OCC[C@H]21 [Compound 13, sweroside]	–	–	–	IC50 ([2]; Mus musculus, 24 h): 36 ± 1.6 µM; viability at 48 h, 80 µM (in vitro [4]): > 80%; viability at 48 h, 80 µM (in vitro [5]): 94.7 ± 4.2%
C=C[C@H]1[C@H](O[C@@H]2O[C@H](CO)[C@@H](O)[C@H](O)[C@H]2O)OC=C(C(=O)O[C@H]2C[C@@H]3C(C(=O)OC)=CO[C@@H](O[C@@H]4O[C@H](CO)[C@@H](O)[C@H](O)[C@H]4O)[C@@H]3[C@@H]2C)[C@H]1/C=C(\C=O)[C@@H]1C(C(=O)O[C@@H]2C[C@@H]3C(C(=O)OC)=CO[C@@H](O[C@@H]4O[C@H](CO)[C@@H](O)[C@H](O)[C@H]4O)[C@@H]3[C@@H]2C)=CO[C@@H](O[C@@H]2O[C@H](CO)[C@@H](O)[C@H](O)[C@H]2O)[C@@H]1C=C [Compound 15, dipsanoside A]	99.5 ± 3.6%	6.13 ± 0.5 µM	> 80%	–
C=C[C@H]1[C@H](O[C@@H]2O[C@H](CO)[C@@H](O)[C@H](O)[C@H]2O)OC=C(C(=O)O[C@H]2C[C@@H]3C(C(=O)OC)=CO[C@@H](O[C@@H]4O[C@H](CO)[C@@H](O)[C@H](O)[C@H]4O)[C@@H]3[C@H]2C)[C@H]1C[C@@H]1N[C@H](C(=O)O)Cc2c1[nH]c1ccccc21 [Compound 16, dipsaperine]	95.2 ± 2.1%	17 ± 1.1 µM	> 80%	–
C=C[C@H]1[C@H](O[C@@H]2O[C@H](CO)[C@@H](O)[C@H](O)[C@H]2O)OC=C(C(=O)O[C@H]2C[C@@H]3C(C(=O)OC)=CO[C@@H](O[C@@H]4O[C@H](CO)[C@@H](O)[C@H](O)[C@H]4O)[C@@H]3[C@@H]2C)[C@H]1/C=C(\C=O)[C@@H]1C(C(=O)O[C@H]2C[C@@H]3C(C(=O)OC)=CO[C@@H](O[C@@H]4O[C@H](CO)[C@@H](O)[C@H](O)[C@H]4O)[C@@H]3[C@H]2C)=CO[C@@H](O[C@@H]2O[C@H](CO)[C@@H](O)[C@H](O)[C@H]2O)[C@@H]1C=C [Compound 17, dipsanoside B]	94.2 ± 4.6%	14.4 ± 1.5 µM	> 80%	–
COC(=O)C1=CO[C@@H](O[C@@H]2O[C@H](CO)[C@@H](O)[C@H](O)[C@H]2O)[C@@H]2[C@@H](C)[C@@H](O)C[C@H]12 [Compound 18, loganin]	98.1 ± 4%	51.1 ± 1.8 µM	> 80%	–
CC(=O)Nc1ccc(O)cc1 [acetaminophen (APAP), acetaminophen]	–	–	–	viability at 36 h, 6 mM [6]: 68.1%
C[C@@H]1C[C@H]2[C@@H]3CCC4=CC(=O)C=C[C@]4(C)[C@@]3(F)[C@@H](O)C[C@]2(C)[C@@]1(O)C(=O)CO [dexamethasone, reference compound]	–	9.08 ± 0.5 µM	–	viability at 48 h, 20 µM [1]: 96.3 ± 2.6%
